pIC50: −log10 of the molar value. Active and inactive are the calls of the source. The rule behind the calls is not given here.
Key:
[1] = molecular target: Receptor-type tyrosine-protein kinase FLT3 (Homo sapiens, UniProt P36888, ITD); assay: Inhibition of FLT3 ITD mutant (unknown origin) using Fluorescein-Poly GT as substrate preincubated for 10 mins followed by substrate addition and measured after 30 mins in presence of ATP by mobility shift assay
[2] = Half life in mouse at 10 mg/kg, po; assay type: ADME, organism-based; conditions: in vivo
[3] = molecular target: Mast/stem cell growth factor receptor Kit (Homo sapiens) (UniProt P10721); assay: Inhibition of human c-Kit assessed as remaining activity at 1 uM by Eurofins-DiscoverX assay relative to control
Sequence of Mast/stem cell growth factor receptor Kit (Homo sapiens) (P10721 whole entry): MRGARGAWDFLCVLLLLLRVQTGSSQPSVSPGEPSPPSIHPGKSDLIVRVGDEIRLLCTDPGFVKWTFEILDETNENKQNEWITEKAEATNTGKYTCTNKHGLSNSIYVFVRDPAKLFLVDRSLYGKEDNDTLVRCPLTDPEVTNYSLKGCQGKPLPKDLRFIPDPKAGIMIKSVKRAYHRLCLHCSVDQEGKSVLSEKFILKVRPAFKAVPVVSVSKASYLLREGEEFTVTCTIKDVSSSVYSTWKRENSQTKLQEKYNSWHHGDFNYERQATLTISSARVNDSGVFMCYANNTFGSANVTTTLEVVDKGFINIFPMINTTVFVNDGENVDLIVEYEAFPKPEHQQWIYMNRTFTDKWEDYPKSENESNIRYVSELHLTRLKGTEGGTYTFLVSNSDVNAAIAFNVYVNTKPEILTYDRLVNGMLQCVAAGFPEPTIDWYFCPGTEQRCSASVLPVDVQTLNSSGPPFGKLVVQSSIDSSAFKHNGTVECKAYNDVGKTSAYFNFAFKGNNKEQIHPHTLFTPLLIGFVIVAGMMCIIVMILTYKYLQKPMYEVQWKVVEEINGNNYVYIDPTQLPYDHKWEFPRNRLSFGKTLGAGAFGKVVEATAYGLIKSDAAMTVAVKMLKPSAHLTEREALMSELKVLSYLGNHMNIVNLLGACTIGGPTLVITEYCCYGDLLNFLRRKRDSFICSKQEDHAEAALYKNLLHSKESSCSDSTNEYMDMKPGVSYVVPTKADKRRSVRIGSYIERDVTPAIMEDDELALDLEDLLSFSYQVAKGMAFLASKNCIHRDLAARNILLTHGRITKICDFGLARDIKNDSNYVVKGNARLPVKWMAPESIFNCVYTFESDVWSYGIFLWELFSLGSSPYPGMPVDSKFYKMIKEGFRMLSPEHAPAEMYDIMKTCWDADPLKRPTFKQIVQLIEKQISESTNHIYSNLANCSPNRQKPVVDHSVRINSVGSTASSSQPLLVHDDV

[4] = molecular target: Cyclin-dependent kinase 5/CDK5 activator 1 (Homo sapiens) (UniProt Q00535+Q15078); assay: Inhibition of human CDK5/p25 assessed as remaining activity at 1 uM by Eurofins-DiscoverX assay relative to control; assay type: protein-complex assay
Sequence of Cyclin-dependent kinase 5/CDK5 activator 1 (Homo sapiens) (Q00535 whole entry): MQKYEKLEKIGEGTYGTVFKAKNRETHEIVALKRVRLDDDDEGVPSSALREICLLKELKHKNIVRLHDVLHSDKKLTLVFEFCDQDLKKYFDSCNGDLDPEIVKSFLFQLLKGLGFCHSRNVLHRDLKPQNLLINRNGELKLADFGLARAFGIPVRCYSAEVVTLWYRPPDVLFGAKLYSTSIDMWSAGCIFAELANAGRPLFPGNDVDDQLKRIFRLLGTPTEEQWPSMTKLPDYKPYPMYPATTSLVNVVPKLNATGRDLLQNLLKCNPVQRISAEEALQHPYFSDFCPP
Sequence of Cyclin-dependent kinase 5/CDK5 activator 1 (Homo sapiens) (Q15078 99-307 partner limits assumed): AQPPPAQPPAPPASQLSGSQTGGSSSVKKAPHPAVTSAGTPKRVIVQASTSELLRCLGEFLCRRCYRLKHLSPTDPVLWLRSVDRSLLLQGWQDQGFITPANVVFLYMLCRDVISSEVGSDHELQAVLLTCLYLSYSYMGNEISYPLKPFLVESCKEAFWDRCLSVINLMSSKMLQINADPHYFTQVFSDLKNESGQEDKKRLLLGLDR

[5] = molecular target: Vascular endothelial growth factor receptor 2 (Homo sapiens, UniProt P35968); assay: Inhibition of VEGFR2 (unknown origin) using Fluorescein-Poly GT as substrate preincubated for 10 mins followed by substrate addition and measured after 30 mins in presence of ATP by mobility shift assay
Sequence of Vascular endothelial growth factor receptor 2 (P35968 whole entry): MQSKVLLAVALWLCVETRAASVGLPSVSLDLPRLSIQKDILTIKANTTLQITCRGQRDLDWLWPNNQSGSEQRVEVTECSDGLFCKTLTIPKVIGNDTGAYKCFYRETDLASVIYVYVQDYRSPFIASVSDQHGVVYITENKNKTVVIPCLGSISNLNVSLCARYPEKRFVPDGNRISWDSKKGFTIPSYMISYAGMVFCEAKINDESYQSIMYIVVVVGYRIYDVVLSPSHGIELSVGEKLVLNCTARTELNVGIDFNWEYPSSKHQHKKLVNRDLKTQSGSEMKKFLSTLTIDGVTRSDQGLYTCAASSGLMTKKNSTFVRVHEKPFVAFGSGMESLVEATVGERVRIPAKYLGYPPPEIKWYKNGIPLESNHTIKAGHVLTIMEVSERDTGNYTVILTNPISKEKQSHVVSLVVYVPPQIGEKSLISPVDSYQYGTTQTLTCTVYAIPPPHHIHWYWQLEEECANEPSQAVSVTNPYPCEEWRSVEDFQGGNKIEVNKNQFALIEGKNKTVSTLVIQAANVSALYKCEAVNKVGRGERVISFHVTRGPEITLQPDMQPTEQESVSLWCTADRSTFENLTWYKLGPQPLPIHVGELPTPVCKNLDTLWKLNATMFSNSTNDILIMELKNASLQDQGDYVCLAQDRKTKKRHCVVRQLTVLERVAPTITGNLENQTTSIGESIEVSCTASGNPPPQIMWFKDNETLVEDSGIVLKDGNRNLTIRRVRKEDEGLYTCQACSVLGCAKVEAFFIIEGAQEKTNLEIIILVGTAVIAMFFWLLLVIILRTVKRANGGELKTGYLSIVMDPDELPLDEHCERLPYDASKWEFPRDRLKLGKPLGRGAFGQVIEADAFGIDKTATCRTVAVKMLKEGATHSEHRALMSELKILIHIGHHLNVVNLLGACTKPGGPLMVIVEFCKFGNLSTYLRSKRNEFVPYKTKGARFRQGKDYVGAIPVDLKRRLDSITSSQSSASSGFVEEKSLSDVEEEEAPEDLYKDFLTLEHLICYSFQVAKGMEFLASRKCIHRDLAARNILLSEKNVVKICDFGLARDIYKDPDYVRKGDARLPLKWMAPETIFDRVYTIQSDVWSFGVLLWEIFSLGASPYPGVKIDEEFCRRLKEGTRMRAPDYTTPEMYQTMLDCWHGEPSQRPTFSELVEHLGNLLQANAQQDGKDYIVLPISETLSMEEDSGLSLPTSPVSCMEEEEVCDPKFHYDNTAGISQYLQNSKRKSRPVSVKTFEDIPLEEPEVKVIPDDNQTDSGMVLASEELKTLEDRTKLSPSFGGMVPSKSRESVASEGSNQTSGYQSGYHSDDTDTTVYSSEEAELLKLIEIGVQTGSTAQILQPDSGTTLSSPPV

MOLM-13 [6] = assay: Induction of cell cycle arrest in human MOLM-13 cells assessed as accumulation of cells at G1 phase at 0.1 uM incubated for 48 hrs (reference value: 40.3%); assay type: functional
MOLM-14 = assay: Antiproliferative activity against human MOLM-14 cells harbouring FLT3-ITD assessed as inhibition of cell growth measured after 3 days by celltiter-glo luminescent cell viability assay; assay type: functional, cell-based; conditions: MOLM-14, 72 h
MOLM-13 [7] = assay: Inhibition of STAT5 phosphorylation in human MOLM-13 cells at 0.2 uM measured after 2 hrs by Western blot analysis relative to control; assay type: cell-based
BaF3 = assay: Antiproliferative activity against mouse BaF3 cells harbouring FLT3-ITD-D835V mutant assessed as inhibition of cell growth measured after 3 days by celltiter-glo luminescent cell viability assay; assay type: functional, cell-based; conditions: BaF3, 72 h
[8] = Metabolic stability in human liver microsomes assessed as intrinsic clearance at 1 uM measured up to 60 mins in presence of NADPH regenerating system by LC-MS/MS analysis; assay type: ADME, Microsome; conditions: read-out: CLH
CYP2D6 = CYP2D6 (Homo sapiens, UniProt P10635); assay: Inhibition of CYP2D6 in human liver microsomes using dextromethorphan as substrate at 10 uM incubated for 10 mins in presence of NADPH by LC-MS/MS analysis relative to control; assay type: ADME, Microsome; conditions: probe dextromethorphan
Sequence of CYP2D6 (P10635 whole entry): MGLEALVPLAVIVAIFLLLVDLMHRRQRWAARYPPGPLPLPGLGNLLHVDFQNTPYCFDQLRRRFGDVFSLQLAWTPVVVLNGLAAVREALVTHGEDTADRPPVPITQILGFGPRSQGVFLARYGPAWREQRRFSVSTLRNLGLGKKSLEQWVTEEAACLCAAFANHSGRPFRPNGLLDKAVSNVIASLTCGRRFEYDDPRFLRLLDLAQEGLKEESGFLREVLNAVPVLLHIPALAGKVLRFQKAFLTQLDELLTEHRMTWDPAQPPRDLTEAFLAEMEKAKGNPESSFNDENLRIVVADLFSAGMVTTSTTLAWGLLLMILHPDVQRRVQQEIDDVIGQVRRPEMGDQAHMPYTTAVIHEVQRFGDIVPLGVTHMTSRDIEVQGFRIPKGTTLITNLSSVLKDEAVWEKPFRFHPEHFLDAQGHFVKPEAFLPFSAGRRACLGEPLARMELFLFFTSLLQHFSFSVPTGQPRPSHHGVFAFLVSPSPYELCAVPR

MOLM-13 [9] = assay: Antiproliferative activity against human MOLM-13 cells harbouring FLT3-ITD assessed as inhibition of cell growth measured after 3 days by celltiter-glo luminescent cell viability assay; assay type: functional, cell-based; conditions: MOLM-13, 72 h
[10] = Metabolic stability in Beagle dog liver microsomes assessed as half life at 1 uM measured up to 60 mins in presence of NADPH regenerating system by LC-MS/MS analysis; assay type: ADME, Canis lupus familiaris, Microsome
CYP3A4 = CYP3A4 (Homo sapiens, UniProt P08684); assay: Inhibition of CYP3A4 in human liver microsomes using midazolam as substrate at 10 uM incubated for 10 mins in presence of NADPH by LC-MS/MS analysis relative to control; assay type: ADME, Microsome; conditions: probe midazolam
Sequence of CYP3A4 (P08684 whole entry): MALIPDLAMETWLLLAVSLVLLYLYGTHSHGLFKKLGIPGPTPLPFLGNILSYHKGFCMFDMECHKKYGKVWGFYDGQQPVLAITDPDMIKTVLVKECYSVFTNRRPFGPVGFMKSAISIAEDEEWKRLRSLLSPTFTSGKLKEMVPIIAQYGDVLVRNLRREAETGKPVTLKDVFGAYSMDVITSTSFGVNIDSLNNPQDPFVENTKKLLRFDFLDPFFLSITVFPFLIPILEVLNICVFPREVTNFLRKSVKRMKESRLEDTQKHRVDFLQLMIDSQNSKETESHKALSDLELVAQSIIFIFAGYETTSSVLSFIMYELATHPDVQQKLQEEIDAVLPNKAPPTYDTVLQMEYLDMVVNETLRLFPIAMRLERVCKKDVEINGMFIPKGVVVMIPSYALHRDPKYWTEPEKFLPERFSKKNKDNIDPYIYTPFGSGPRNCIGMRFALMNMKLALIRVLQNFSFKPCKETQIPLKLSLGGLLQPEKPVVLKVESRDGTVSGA

[11] = molecular target: Receptor-type tyrosine-protein kinase FLT3 (Homo sapiens) (UniProt P36888); assay: Inhibition of FLT3 phosphorylation in human MOLM-13 cells measured after 2 hrs by Western blot analysis; assay type: cell-based; conditions: dose 0.01-1 µM
Sequence of Receptor-type tyrosine-protein kinase FLT3 (Homo sapiens) (P36888 whole entry): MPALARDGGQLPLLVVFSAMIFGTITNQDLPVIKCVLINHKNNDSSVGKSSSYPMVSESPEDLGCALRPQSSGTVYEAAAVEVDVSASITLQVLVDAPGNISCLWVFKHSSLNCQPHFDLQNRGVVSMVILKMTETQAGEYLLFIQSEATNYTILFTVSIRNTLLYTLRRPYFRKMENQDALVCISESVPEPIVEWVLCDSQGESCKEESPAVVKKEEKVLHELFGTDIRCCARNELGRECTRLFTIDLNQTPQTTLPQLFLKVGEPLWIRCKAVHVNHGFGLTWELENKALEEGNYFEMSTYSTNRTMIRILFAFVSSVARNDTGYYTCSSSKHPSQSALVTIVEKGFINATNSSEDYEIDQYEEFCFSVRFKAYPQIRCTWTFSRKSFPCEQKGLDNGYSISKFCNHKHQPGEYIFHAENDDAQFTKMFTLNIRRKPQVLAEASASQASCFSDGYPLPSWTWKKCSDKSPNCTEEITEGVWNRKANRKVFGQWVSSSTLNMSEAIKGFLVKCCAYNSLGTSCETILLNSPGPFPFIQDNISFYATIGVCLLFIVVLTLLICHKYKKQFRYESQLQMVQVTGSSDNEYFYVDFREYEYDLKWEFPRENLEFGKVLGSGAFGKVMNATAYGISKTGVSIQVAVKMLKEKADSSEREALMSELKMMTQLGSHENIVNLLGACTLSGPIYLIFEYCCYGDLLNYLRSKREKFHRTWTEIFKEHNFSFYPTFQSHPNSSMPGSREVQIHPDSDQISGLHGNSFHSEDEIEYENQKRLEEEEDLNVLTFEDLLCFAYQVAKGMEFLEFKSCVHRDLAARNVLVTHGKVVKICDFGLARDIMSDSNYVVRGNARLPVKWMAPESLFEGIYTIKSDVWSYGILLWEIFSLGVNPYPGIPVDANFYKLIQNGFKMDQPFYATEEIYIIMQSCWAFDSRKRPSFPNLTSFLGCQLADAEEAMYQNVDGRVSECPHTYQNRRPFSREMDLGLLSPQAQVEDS

MOLM-13 [12] = assay: Induction of apoptosis in human MOLM-13 cells assessed as necrotic cells at 1 uM incubated for 48 hrs by Annexin V-FITC/PI staining based flow cytometry analysis (reference value: 0.077%); assay type: functional
[13] = molecular target: T1, Cyclin-dependent kinase 2/cyclin A (Homo sapiens) (UniProt P24941+P20248+P78396); assay: Inhibition of human CDK2/CyclinA assessed as remaining activity at 1 uM by Eurofins-DiscoverX assay relative to control; assay type: protein-complex assay
[14] = Antiproliferative activity against non-FLT3 expressing human TMD8 cells assessed as inhibition of cell growth measured after 3 days by celltiter-glo luminescent cell viability assay; assay type: functional, cell-based; conditions: TMD8, 72 h
MOLM-13 [15] = assay: Induction of apoptosis in human MOLM-13 cells assessed as early apoptotic cells at 0.1 uM incubated for 48 hrs by Annexin V-FITC/PI staining based flow cytometry analysis (reference value: 4.93%); assay type: functional
[16] = MRT (0 to t) in mouse at 5 mg/kg, iv; assay type: ADME, organism-based; conditions: in vivo
[17] = molecular target: T1, Cyclin-dependent kinase 2/cyclin A (Homo sapiens); assay: Inhibition of human CDK2/CyclinA at 1 uM by Eurofins-DiscoverX assay; assay type: protein-complex assay
[18] = Metabolic stability in Sprague-Dawley rat liver microsomes assessed as half life at 1 uM measured up to 60 mins in presence of NADPH regenerating system by LC-MS/MS analysis; assay type: ADME, Microsome
[19] = molecular target: CDK3/Cyclin E (Homo sapiens) (UniProt P24864+Q00526); assay: Inhibition of human CDK3/CyclinE at 1 uM by Eurofins-DiscoverX assay; assay type: protein-complex assay

Sequence of Receptor-type tyrosine-protein kinase FLT3 (P36888 whole entry, looked up, stated change not applied): as the sequence (P36888 whole entry) above

## Cc1cc(=O)n(-c2cc(Cl)ccc2F)nc1C(=O)Nc1ccc(Oc2ccnc(NC(=O)N3CC(O)C3)c2)c(F)c1
[1]
  pIC50: 6.82
[2]
  half-life: 1.83 h
[3]
  Activity: 88%
[4]
  Activity: 88%
[5]
  pIC50: 6.88
MOLM-13 [6]
  Activity: 50.1%
MOLM-14
  pIC50: 6.29
MOLM-13 [7]
  inhibition: 100%
BaF3
  pIC50: 5.11
[8]
  microsomal CLint at 1 µM: 12.7 µL/min/mg
CYP2D6
  inhibition at 10 min, 10 µM: 19.8%
MOLM-13 [9]
  pIC50: 6.85
[10]
  half-life at 1 µM: 2.1 h
CYP3A4
  inhibition at 10 min, 10 µM: 34.2%
[11]
  inhibition: Dose-dependent-effect
MOLM-13 [12]
  Activity: 0.74%
[13]
  Activity: 88%
[14]
  pIC50: 4.65
MOLM-13 [15]
  Activity: 5.69%
[16]
  MRT last: 7.17 h
[17]
  inhibition: inactive
[18]
  half-life at 1 µM: 1.95 h
[19]
  inhibition: inactive
